Source: patent publication US20260021098A1, “METHODS OF TREATMENT OF JAK INHIBITION RESPONSIVE CONDITIONS WITH DEUTERATED JAK INHIBITORS” (Sun Pharmaceutical Industries, Inc., priority 2024, published 2026)

Test: Drug-drug interaction study of Compound (I) and itraconazole, plasma concentration data
Format: in vivo, human
Conditions: 12 mg Compound (I) with 200 mg itraconazole (Test), healthy volunteers

t1/2: 4.62 h
SMILES: [2H]C1([2H])C([C@@H](CC#N)n2cc(-c3ncnc4[nH]ccc34)cn2)C([2H])([2H])C([2H])([2H])C1([2H])[2H] [Compound (I), (R)-3-(4-(7H-pyrrolo[2,3-d]pyrimidin-4-yl)-1H-pyrazol-1-yl)-3-(cyclopentyl-2,2,3,3,4,4,5,5-d8) propanenitrile]
